Data as given in patent publication US9023789B2, “Amylin analogs and pharmaceutical compositions thereof” (Novo Nordisk A/S, priority 2012, dated 2015).
Numbered stars: 1 amine (or outer) side, 2 acyl side, 3 side chain; on linkers, the order of the positions; unused ones are H or OH. Bridge positions count the residues as written; N and C are the ends. Side chains are listed from the residue outwards. Peptide text beside a SMILES is read from it. * marks the point of attachment. C20 diacid = O=C(O)CCCCCCCCCCCCCCCCCCC(=O)*; γGlu = O=C(O)[C@H](CCC(=O)[*:2])N[*:1]; AEEA = NCCOCCOCC(=O)O

Key:
[1] = target: T1, human amylin 3(a) receptor (human calcitonin receptor + RAMP-3) in BHK570 cells (Homo sapiens, UniProt O60896+P30988); assay: ASSAY (II)a functional assay, human amylin receptor (CRE luciferase); type: cell-based; conditions: for EC50: human amylin receptor functional potency, assay (II), read-out: hAmylin-R funct. EC50
T1 construct: expressed in transfected cells
How it was run: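 Readout is luminescence from a cAMP-responsive CRE-luc reporter, developed with LucLite for 30 min at room temperature. Cells were treated for 3 h at 37 °C in 10% FBS/DMEM buffered with 10 mM Hepes (pH 7.4).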

[2] = ASSAY (III) ThT fibrillation assay for physical stability; type: physicochemical
How it was run: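 Physical stability scored by ThT fluorescence (444 nm excitation, 485 nm emission) tracked every 20 min during 37 °C incubation with 960 rpm shaking, ThT at 1 μM final. Values are replicate means with SD at chosen times; HPLC against pramlintide standard gives initial and post-assay soluble concentrations.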

[3] = target: T2, human amylin receptor (membranes from Amylin 3(a)/CRE-luc cells) (Homo sapiens, UniProt O60896+P30988); assay: ASSAY (V) binding to the human amylin receptor (SPA, 125I-rat amylin); conditions: for IC50: Table 4, read-out: hAmylin-R bind IC50;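 for all read-outs here: competition binding of cell membranes (35 ng/µL) mixed with SPA beads in 384-well plates at 40 µL total volume, read by scintillation counting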
T2 construct: expressed in transfected cells
T2 sequence (P30988 25-474): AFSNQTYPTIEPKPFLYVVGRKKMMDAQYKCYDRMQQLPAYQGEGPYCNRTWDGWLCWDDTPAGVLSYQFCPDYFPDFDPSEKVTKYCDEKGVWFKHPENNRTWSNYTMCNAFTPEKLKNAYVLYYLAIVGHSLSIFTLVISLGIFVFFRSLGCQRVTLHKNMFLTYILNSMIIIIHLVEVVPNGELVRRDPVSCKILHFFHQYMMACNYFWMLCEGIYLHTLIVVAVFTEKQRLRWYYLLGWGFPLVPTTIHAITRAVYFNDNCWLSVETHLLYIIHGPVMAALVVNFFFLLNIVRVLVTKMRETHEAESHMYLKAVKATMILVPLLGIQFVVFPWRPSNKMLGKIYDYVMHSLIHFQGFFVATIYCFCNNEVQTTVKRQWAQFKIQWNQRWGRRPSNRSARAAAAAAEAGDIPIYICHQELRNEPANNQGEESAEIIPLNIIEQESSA
T2 sequence (O60896 24-148 partner): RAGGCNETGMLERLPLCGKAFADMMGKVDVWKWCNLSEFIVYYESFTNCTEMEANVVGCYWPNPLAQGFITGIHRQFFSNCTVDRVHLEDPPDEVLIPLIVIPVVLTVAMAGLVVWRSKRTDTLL

[4] = hCTR funct. EC50 / hAmylin-R funct. EC50
[5] = hCTR funct. EC50 divided by hAmylin-R funct. EC50
[6] = human functional selectivity: hCTR funct. EC50 / hAmylin-R funct. EC50
[7] = Table 5, selectivity, hCTR bind IC50 / hAmylin-R bind IC50
[8] = Table 5a, selectivity, hCTR bind IC50 / hAmylin-R bind IC50
[9] = Table 5b, selectivity, hCTR bind IC50 / hAmylin-R bind IC50
[10] = Table 5c, selectivity, hCTR bind IC50 / hAmylin-R bind IC50
[11] = Table 7, human binding selectivity, included for comparison
[12] = Table 7a (preferred compounds), human binding selectivity, included for comparison
[13] = ratio of human calcitonin receptor binding IC50 to human amylin receptor binding IC50
[14] = hCTR funct. EC50 over hAmylin-R funct. EC50

Ratio hCT/hAmylin funct. [1, 4]	Ratio hCT/hAmylin funct. [1, 5]	EC50 [1] [nM]	Ratio hCT/hAmylin funct. [1, 6]	ThT pH 4.0 lag time (h) [2] [h]	IC50 [3] [nM]	Ratio hCT/hAmylin binding [3, 7]	Ratio hCT/hAmylin binding [3, 8]	Ratio hCT/hAmylin binding [3, 9]	Ratio hCT/hAmylin binding [3, 10]	Ratio hCT/hAmylin binding [3, 11]	Ratio hCT/hAmylin binding [3, 12]	Ratio hCT/hAmylin binding [3, 13]	Ratio hCT/hAmylin funct. [1, 14]	Structure (SMILES)
–	33.0	0.651	33.0	37	0.967	63.4	63.4	63.4	63.4	63.4	63.4	63.4	33.0	CC[C@H](C)[C@H](NC(=O)[C@H](C)NC(=O)CNC(=O)[C@H](Cc1ccccc1)NC(=O)[C@H](CC(N)=O)NC(=O)[C@@H]1CCCN1C(=O)[C@H](CO)NC(=O)[C@H](CO)NC(=O)[C@H](Cc1c[nH]cn1)NC(=O)[C@H](CCCNC(=N)N)NC(=O)[C@H](CC(C)C)NC(=O)[C@H](Cc1ccccc1)NC(=O)[C@H](CC(N)=O)NC(=O)[C@H](C)NC(=O)[C@H](CC(C)C)NC(=O)[C@H](CCCNC(=N)N)NC(=O)[C@H](CCC(N)=O)NC(=O)[C@@H](NC(=O)[C@H](C)NC(=O)[C@@H]1CSSC[C@H](NC(=O)[C@@H](N)CCCCNC(=O)COCCOCCNC(=O)COCCOCCNC(=O)CC[C@H](NC(=O)CCCCCCCCCCCCCCCCCCC(=O)O)C(=O)O)C(=O)N[C@@H](CC(N)=O)C(=O)N[C@@H]([C@@H](C)O)C(=O)N[C@@H](C)C(=O)N[C@@H]([C@@H](C)O)C(=O)N1)[C@@H](C)O)C(=O)N1CCC[C@H]1C(=O)N[C@@H](CO)C(=O)N[C@@H](CO)C(=O)N[C@H](C(=O)N[C@@H](CC(N)=O)C(=O)N[C@H](C(=O)NCC(=O)N[C@@H](CCCNC(=N)N)C(=O)N[C@@H](CC(N)=O)C(=O)N[C@H](C(=O)N[C@@H](Cc1ccc(O)cc1)C(N)=O)[C@@H](C)O)C(C)C)[C@@H](C)O [Example 95] (H-K([AEEA-AEEA-γGlu-C20 diacid])CNTATCATQRLANFLRHSSPNFGAIPSSTNVGRNTY-NH2; disulfide 2-7 (inferred); N-terminus assumed)
4.9	4.9	0.109	4.9	45	0.426	68.6	68.6	68.6	68.6	68.6	68.6	68.6	4.9	CC[C@H](C)[C@H](NC(=O)[C@H](C)NC(=O)CNC(=O)[C@H](Cc1ccccc1)NC(=O)[C@H](CC(N)=O)NC(=O)[C@@H]1CCCN1C(=O)[C@H](CO)NC(=O)[C@H](CO)NC(=O)[C@H](Cc1c[nH]cn1)NC(=O)[C@H](CCCNC(=N)N)NC(=O)[C@H](CC(C)C)NC(=O)[C@H](Cc1ccccc1)NC(=O)[C@H](C)NC(=O)[C@H](C)NC(=O)[C@H](CC(C)C)NC(=O)[C@H](CCCNC(=N)N)NC(=O)[C@H](CCC(N)=O)NC(=O)[C@@H](NC(=O)[C@H](C)NC(=O)[C@@H]1CSSC[C@H](NC(=O)[C@H](CCCNC(=N)N)NC(=O)CNC(=O)CC[C@H](NC(=O)CCCCCCCCCCCCCCCCCCC(=O)O)C(=O)O)C(=O)N[C@@H](CC(N)=O)C(=O)N[C@@H]([C@@H](C)O)C(=O)N[C@@H](C)C(=O)N[C@@H]([C@@H](C)O)C(=O)N1)[C@@H](C)O)C(=O)N1CCC[C@H]1C(=O)N[C@@H](CO)C(=O)N[C@@H](CO)C(=O)N[C@H](C(=O)N[C@@H](CC(N)=O)C(=O)N[C@H](C(=O)NCC(=O)N[C@@H](Cc1c[nH]cn1)C(=O)N[C@@H](CC(N)=O)C(=O)N[C@H](C(=O)N[C@@H](Cc1ccc(O)cc1)C(N)=O)[C@@H](C)O)C(C)C)[C@@H](C)O [Example 101] ({C20 diacid-γGlu}-GRCNTATCATQRLAAFLRHSSPNFGAIPSSTNVGHNTY-NH2; disulfide 3-8)
2.9	2.9	–	2.9	26	–	36.2	36.2	36.2	36.2	36.2	36.2	36.2	2.9	CC[C@H](C)[C@H](NC(=O)[C@H](C)NC(=O)CNC(=O)[C@H](Cc1ccccc1)NC(=O)[C@H](CC(N)=O)NC(=O)[C@@H]1CCCN1C(=O)[C@H](CO)NC(=O)[C@H](CO)NC(=O)[C@H](Cc1c[nH]cn1)NC(=O)[C@H](CCCNC(=N)N)NC(=O)[C@H](CC(C)C)NC(=O)[C@H](Cc1ccccc1)NC(=O)[C@H](Cc1c[nH]cn1)NC(=O)[C@H](C)NC(=O)[C@H](CC(C)C)NC(=O)[C@H](CCCNC(=N)N)NC(=O)[C@H](CCC(N)=O)NC(=O)[C@@H](NC(=O)[C@H](C)NC(=O)[C@@H]1CSSC[C@H](NC(=O)[C@H](CCCNC(=N)N)NC(=O)CNC(=O)CC[C@H](NC(=O)CCCCCCCCCCCCCCCCCCC(=O)O)C(=O)O)C(=O)N[C@@H](CC(N)=O)C(=O)N[C@@H]([C@@H](C)O)C(=O)N[C@@H](C)C(=O)N[C@@H]([C@@H](C)O)C(=O)N1)[C@@H](C)O)C(=O)N1CCC[C@H]1C(=O)N[C@@H](CO)C(=O)N[C@@H](CO)C(=O)N[C@H](C(=O)N[C@@H](CC(N)=O)C(=O)N[C@H](C(=O)NCC(=O)N1CCC[C@H]1C(=O)N[C@@H](CC(N)=O)C(=O)N[C@H](C(=O)N[C@@H](Cc1ccc(O)cc1)C(N)=O)[C@@H](C)O)C(C)C)[C@@H](C)O [Example 102] ({C20 diacid-γGlu}-GRCNTATCATQRLAHFLRHSSPNFGAIPSSTNVGPNTY-NH2; disulfide 3-8 (inferred))

Structure (SMILES)	Ratio hCT/hAmylin funct. [1, 4]	Ratio hCT/hAmylin funct. [1, 5]	EC50 [1] [nM]	Ratio hCT/hAmylin funct. [1, 6]	ThT pH 4.0 lag time (h) [2] [h]	IC50 [3] [nM]	Ratio hCT/hAmylin binding [3, 7]	Ratio hCT/hAmylin binding [3, 8]	Ratio hCT/hAmylin binding [3, 9]	Ratio hCT/hAmylin binding [3, 10]	Ratio hCT/hAmylin binding [3, 11]	Ratio hCT/hAmylin binding [3, 12]	Ratio hCT/hAmylin binding [3, 13]	Ratio hCT/hAmylin funct. [1, 14]
CC[C@H](C)[C@H](NC(=O)[C@H](C)NC(=O)CNC(=O)[C@H](Cc1ccccc1)NC(=O)[C@H](CC(N)=O)NC(=O)[C@@H]1CCCN1C(=O)[C@H](CO)NC(=O)[C@H](CO)NC(=O)[C@H](Cc1c[nH]cn1)NC(=O)[C@H](CCCNC(=N)N)NC(=O)[C@H](CC(C)C)NC(=O)[C@H](Cc1ccccc1)NC(=O)[C@H](C)NC(=O)[C@H](C)NC(=O)[C@H](CC(C)C)NC(=O)[C@H](CCCNC(=N)N)NC(=O)[C@H](CCC(N)=O)NC(=O)[C@@H](NC(=O)[C@H](C)NC(=O)[C@@H]1CSSC[C@H](NC(=O)[C@@H](N)CCCCNC(=O)CC[C@H](NC(=O)CCCCCCCCCCCCCCCCCCC(=O)O)C(=O)O)C(=O)N[C@@H](CC(N)=O)C(=O)N[C@@H]([C@@H](C)O)C(=O)N[C@@H](C)C(=O)N[C@@H]([C@@H](C)O)C(=O)N1)[C@@H](C)O)C(=O)N1CCC[C@H]1C(=O)N[C@@H](CO)C(=O)N[C@@H](CO)C(=O)N[C@H](C(=O)N[C@@H](CC(N)=O)C(=O)N[C@H](C(=O)NCC(=O)N1CCC[C@H]1C(=O)N[C@@H](CC(N)=O)C(=O)N[C@H](C(=O)N[C@@H](Cc1ccc(O)cc1)C(N)=O)[C@@H](C)O)C(C)C)[C@@H](C)O [Example 94] (H-K([γGlu-C20 diacid])CNTATCATQRLAAFLRHSSPNFGAIPSSTNVGPNTY-NH2; disulfide 2-7 (inferred))	4.5	4.5	0.07	4.5	10	0.148	46.3	46.3	46.3	46.3	46.3	46.3	46.3	–
